In patent US20250243196A1, “CITRON KINASE INHIBITORS” (The Cleveland Clinic Foundation, priority 2021, published 2025):

Key:
Experiment in all cases: KinaseProfiler panel
Format in all cases: biochemical
Conditions in all cases: activity remaining
[1] = molecular target: BIKE(h) (Homo sapiens (Human), UniProt Q9NSY1); set-up: dose or concentration left out as unconfirmed
[2] = molecular target: Cdc7/cyclinB1(h) (Homo sapiens, UniProt O00311); set-up: dose or concentration left out as unconfirmed
[3] = molecular target: CDK14/cyclinY(h) (Homo sapiens (Human), UniProt O94921); set-up: dose or concentration left out as unconfirmed
Sequence of CDK14/cyclinY(h) (O94921 whole entry): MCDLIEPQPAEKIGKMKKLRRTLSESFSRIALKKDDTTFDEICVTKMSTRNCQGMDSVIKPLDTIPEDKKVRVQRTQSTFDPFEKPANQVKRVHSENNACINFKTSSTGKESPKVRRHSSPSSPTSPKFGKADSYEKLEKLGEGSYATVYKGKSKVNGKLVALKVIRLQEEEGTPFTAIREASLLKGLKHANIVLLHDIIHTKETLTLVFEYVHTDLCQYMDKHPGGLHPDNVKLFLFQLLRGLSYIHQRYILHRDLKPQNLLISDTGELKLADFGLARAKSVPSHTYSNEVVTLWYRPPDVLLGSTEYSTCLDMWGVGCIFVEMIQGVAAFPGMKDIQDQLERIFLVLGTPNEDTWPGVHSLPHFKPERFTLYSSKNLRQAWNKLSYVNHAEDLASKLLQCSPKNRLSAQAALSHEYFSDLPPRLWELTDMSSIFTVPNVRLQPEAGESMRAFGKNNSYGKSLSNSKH
Sequence of CDK14/cyclinY(h) (Q8ND76 whole entry partner): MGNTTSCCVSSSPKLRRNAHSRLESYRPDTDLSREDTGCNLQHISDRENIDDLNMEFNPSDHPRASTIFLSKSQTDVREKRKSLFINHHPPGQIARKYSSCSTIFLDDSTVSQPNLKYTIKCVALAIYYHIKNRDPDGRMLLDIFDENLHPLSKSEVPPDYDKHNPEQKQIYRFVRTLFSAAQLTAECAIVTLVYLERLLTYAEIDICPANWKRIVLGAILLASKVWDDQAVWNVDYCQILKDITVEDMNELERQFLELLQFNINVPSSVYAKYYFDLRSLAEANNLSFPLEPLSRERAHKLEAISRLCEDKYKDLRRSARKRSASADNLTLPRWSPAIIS

[4] = molecular target: CDK16/cyclinY(h) (Homo sapiens (Human), UniProt Q00536); set-up: dose or concentration left out as unconfirmed
[5] = molecular target: CDK18/cyclinY(h) (Homo sapiens (Human), UniProt Q07002); set-up: dose or concentration left out as unconfirmed
[6] = molecular target: CK1γ3(h) (Homo sapiens (Human), UniProt Q9Y6M4); set-up: dose or concentration left out as unconfirmed
Sequence of CK1γ3(h) (Q9Y6M4 whole entry): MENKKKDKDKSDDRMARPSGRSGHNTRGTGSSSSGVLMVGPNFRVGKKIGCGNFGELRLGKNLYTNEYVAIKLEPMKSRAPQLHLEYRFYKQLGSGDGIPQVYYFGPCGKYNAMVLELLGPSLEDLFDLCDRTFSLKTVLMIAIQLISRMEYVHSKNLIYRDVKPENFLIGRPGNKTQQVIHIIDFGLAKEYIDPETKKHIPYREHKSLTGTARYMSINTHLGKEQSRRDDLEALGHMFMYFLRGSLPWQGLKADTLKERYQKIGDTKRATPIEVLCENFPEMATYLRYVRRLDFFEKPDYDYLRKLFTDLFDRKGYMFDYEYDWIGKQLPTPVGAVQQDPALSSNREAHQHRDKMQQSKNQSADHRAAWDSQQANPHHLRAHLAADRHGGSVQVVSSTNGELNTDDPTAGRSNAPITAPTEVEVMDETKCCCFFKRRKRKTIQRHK

[7] = molecular target: CK2(h) (Homo sapiens (Human), UniProt P68400); set-up: dose or concentration left out as unconfirmed
[8] = molecular target: CLK2(h) (Homo sapiens (Human), UniProt P49760); set-up: dose or concentration left out as unconfirmed
[9] = molecular target: cSRC(h) (Homo sapiens (Human), UniProt P12931); set-up: dose or concentration left out as unconfirmed
[10] = molecular target: DYRK3(h) (Homo sapiens (Human), UniProt O43781); set-up: dose or concentration left out as unconfirmed
[11] = molecular target: EphB4(h) (Homo sapiens (Human), UniProt P54760); set-up: dose or concentration left out as unconfirmed
Sequence of EphB4(h) (P54760 16-987): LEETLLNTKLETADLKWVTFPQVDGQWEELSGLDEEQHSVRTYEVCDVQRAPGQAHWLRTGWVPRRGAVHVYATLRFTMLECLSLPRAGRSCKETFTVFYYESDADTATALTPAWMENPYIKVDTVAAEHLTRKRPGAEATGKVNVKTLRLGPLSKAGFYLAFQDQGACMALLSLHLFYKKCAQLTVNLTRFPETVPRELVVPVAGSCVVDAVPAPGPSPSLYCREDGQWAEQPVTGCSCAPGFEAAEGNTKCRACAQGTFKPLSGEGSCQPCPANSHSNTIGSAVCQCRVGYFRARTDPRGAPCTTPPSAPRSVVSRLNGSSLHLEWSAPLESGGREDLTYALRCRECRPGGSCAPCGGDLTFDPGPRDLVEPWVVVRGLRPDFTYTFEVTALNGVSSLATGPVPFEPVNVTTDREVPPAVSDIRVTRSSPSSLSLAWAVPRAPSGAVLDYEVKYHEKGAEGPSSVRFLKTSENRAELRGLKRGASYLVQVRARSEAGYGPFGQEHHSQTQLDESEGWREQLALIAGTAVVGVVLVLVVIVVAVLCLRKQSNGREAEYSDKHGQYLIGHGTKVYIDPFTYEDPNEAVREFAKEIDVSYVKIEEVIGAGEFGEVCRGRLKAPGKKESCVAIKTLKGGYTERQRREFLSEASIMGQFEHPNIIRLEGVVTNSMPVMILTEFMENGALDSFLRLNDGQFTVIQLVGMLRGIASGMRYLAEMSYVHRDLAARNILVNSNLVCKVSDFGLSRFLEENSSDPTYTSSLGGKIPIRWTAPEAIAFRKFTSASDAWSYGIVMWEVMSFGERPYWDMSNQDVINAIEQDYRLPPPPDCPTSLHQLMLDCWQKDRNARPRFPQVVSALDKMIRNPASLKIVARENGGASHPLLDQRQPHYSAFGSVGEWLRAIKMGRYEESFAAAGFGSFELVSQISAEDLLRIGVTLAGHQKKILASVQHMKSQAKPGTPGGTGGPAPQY

[12] = molecular target: Fgr(h) (Homo sapiens (Human), UniProt P09769); set-up: dose or concentration left out as unconfirmed
[13] = molecular target: IGF-1R(h) (Homo sapiens (Human), UniProt P08069); set-up: dose or concentration left out as unconfirmed
[14] = molecular target: IGF-1R(h), activated (Homo sapiens (Human), UniProt P08069); set-up: dose or concentration left out as unconfirmed
[15] = molecular target: JAK2(h) (Homo sapiens (Human), UniProt O60674); set-up: dose or concentration left out as unconfirmed
[16] = molecular target: MAPK1(h) (Homo sapiens (Human), UniProt P27361); set-up: dose or concentration left out as unconfirmed
[17] = molecular target: MARK1(h) (Homo sapiens (Human), UniProt Q9P0L2); set-up: dose or concentration left out as unconfirmed
Sequence of MARK1(h) (Q9P0L2 whole entry): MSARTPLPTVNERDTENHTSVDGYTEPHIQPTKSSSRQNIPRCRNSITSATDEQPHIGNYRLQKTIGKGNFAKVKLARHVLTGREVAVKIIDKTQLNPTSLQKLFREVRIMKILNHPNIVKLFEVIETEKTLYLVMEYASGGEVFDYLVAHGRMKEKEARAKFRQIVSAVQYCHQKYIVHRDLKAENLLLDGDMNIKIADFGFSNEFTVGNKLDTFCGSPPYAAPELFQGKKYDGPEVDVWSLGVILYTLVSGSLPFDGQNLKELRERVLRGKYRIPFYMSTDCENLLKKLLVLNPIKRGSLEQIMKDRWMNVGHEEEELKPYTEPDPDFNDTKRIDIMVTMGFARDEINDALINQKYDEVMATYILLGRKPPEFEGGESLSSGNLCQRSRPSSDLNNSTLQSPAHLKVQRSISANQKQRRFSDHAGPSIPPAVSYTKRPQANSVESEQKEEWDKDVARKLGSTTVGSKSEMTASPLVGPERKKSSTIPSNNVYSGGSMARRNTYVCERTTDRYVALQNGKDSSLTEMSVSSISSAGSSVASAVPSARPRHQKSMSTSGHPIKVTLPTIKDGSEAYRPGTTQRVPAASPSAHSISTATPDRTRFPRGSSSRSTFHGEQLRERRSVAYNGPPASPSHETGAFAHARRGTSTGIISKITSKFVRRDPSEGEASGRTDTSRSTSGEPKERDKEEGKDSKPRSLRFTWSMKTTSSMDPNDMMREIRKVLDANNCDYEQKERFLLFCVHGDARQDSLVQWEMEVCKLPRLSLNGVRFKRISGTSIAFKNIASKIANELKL

[18] = molecular target: MEKK3(h) (Homo sapiens (Human), UniProt Q99759); set-up: dose or concentration left out as unconfirmed
[19] = molecular target: Mer(h) (Homo sapiens (Human), UniProt Q12866); set-up: dose or concentration left out as unconfirmed
[20] = molecular target: MKK3(h) (Homo sapiens (Human), UniProt P46734); set-up: dose or concentration left out as unconfirmed
[21] = molecular target: PAK6(h) (Homo sapiens (Human), UniProt Q9NQU5); set-up: dose or concentration left out as unconfirmed
Sequence of PAK6(h) (Q9NQU5 whole entry): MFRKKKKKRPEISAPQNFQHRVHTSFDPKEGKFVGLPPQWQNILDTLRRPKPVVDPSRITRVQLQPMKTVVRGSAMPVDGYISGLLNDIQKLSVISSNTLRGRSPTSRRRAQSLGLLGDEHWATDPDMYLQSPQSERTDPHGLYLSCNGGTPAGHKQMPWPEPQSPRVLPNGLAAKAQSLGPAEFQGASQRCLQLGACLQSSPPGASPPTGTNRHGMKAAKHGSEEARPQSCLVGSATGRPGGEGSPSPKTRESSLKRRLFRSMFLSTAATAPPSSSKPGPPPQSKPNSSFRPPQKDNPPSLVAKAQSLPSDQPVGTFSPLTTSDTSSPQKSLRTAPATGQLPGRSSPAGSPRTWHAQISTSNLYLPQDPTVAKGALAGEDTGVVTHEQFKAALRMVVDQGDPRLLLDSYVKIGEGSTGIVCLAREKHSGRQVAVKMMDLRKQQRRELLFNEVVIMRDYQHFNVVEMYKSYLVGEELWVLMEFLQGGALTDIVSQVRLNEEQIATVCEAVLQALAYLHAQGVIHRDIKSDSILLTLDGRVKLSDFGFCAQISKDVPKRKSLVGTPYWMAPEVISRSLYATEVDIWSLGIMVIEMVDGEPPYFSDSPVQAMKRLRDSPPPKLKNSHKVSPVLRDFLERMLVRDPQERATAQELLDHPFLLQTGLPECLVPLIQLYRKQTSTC

[22] = molecular target: Pim-1(h) (Homo sapiens (Human), UniProt P11309); set-up: dose or concentration left out as unconfirmed
[23] = molecular target: PIP5K1g(h) (Homo sapiens (Human), UniProt O60331)
[24] = molecular target: PKCβI(h) (Homo sapiens (Human), UniProt P05771); set-up: dose or concentration left out as unconfirmed
[25] = molecular target: Rsk2(h) (Homo sapiens (Human), UniProt P51812); set-up: dose or concentration left out as unconfirmed
[26] = molecular target: Rsk3(h) (Homo sapiens (Human), UniProt Q15349); set-up: dose or concentration left out as unconfirmed
[27] = molecular target: SAPK3(h) (Homo sapiens (Human), UniProt P53778); set-up: dose or concentration left out as unconfirmed
[28] = molecular target: SAPK4(h) (Homo sapiens (Human), UniProt O15264); set-up: dose or concentration left out as unconfirmed
Sequence of SAPK4(h) (O15264 whole entry): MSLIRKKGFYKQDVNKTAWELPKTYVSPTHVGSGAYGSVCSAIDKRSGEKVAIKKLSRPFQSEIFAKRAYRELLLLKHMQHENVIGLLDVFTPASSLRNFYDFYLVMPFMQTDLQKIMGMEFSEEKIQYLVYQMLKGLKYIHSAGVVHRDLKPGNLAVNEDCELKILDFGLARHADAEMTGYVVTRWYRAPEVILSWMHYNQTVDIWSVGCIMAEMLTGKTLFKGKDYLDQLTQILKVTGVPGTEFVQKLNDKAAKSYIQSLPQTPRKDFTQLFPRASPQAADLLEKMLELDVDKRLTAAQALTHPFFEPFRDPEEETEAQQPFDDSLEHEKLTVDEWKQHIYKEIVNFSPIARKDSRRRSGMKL

[29] = molecular target: SIK2(h) (Homo sapiens (Human), UniProt Q9H0K1); set-up: dose or concentration left out as unconfirmed
[30] = molecular target: SRPK2(h) (Homo sapiens (Human), UniProt P78362); set-up: dose or concentration left out as unconfirmed
Sequence of SRPK2(h) (P78362 whole entry): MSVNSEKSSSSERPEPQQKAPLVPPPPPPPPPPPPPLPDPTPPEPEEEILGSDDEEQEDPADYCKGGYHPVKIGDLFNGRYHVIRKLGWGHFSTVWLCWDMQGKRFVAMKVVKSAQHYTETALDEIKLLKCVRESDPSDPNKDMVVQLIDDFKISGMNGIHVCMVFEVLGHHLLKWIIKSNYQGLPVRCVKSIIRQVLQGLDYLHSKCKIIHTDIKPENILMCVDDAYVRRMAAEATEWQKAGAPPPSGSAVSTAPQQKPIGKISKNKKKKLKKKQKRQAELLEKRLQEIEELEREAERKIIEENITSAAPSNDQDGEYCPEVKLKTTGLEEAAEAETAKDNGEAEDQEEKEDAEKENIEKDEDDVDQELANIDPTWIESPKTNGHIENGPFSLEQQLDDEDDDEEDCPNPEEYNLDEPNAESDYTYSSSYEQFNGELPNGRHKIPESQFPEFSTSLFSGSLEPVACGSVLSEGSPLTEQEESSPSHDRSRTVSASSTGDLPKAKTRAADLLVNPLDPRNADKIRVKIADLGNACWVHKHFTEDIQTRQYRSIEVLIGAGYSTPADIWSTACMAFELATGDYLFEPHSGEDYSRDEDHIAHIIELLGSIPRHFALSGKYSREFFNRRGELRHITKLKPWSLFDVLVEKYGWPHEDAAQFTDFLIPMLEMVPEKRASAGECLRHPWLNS

[31] = molecular target: STK25(h) (Homo sapiens (Human), UniProt O00506); set-up: dose or concentration left out as unconfirmed
[32] = molecular target: Tec(h) activated (Homo sapiens (Human), UniProt P42680); set-up: dose or concentration left out as unconfirmed
[33] = molecular target: ULK1(h) (Homo sapiens (Human), UniProt O75385); set-up: dose or concentration left out as unconfirmed

Compound: Cc1cc2c(-c3ccc(NC(=O)[C@H](N)CC(C)(C)C)cc3C)ccnc2[nH]1 [Compound F-90, (2R)-2-Amino-4,4-dimethyl-N-[3-methyl-4-(2-methyl-1H-pyrrolo[2,3-b]pyridin-4-yl)phenyl]pentanamide]
- % Activity [1]: 50%
- % Activity [2]: 75%
- % Activity [3]: 91%
- % Activity [4]: 98%
- % Activity [5]: 94%
- % Activity [6]: 84%
- % Activity [7]: 112%
- % Activity [8]: 106%
- % Activity [9]: 93%
- % Activity [10]: 99%
- % Activity [11]: 107%
- % Activity [12]: 97%
- % Activity [13]: 98%
- % Activity [14]: 93%
- % Activity [15]: 104%
- % Activity [16]: 95%
- % Activity [17]: 106%
- % Activity [18]: 107%
- % Activity [19]: 105%
- % Activity [20]: 97%
- % Activity [21]: 101%
- % Activity [22]: 95%
- % Activity [23]: 102%
- % Activity [24]: 90%
- % Activity [25]: 88%
- % Activity [26]: 112%
- % Activity [27]: 113%
- % Activity [28]: 94%
- % Activity [29]: 109%
- % Activity [30]: 93%
- % Activity [31]: 92%
- % Activity [32]: 126%
- % Activity [33]: 95%
